From patent US20180000085A1, “USE OF PICOLINAMIDE COMPOUNDS WITH FUNGICIDAL ACTIVITY” (DOW AGROSCIENCES LLC, priority 2014, published 2018)

How the values were obtained:
[1] = tested on: Zymoseptoria tritici; test: Leaf blotch of wheat (SEPTTR) disease control on wheat seedlings; assay type: in vivo; parameters: key to SEPTTR 1DP, HV activity at 100 ppm (% control rating) / SEPTTR 3DC, HV activity at 100 ppm (% control rating) / SEPTTR disease control, 1DP / SEPTTR disease control, 3DC / SEPTTR 1DP disease control rating, HV activity / SEPTTR 3DC disease control rating, HV activity / SEPTTR 3DC, LV activity at 125.1 g/H (% Control rating) / SEPTTR 1DP, LV activity at 125.1 g/H (% Control rating) / SEPTTR 1DP disease control rating, LV activity at 125.1 g/H / SEPTTR 3DC disease control rating, LV activity at 125.1 g/H / SEPTTR 3DC disease control rating, HV activity at 100 ppm / SEPTTR 1DP disease control rating, HV activity at 100 ppm / HV activity at 100 ppm SEPTTR 3DC (disease control rating) / HV activity at 100 ppm SEPTTR 1DP (disease control rating) / LV activity at 125.1 g/H SEPTTR 1DP (disease control rating) / LV activity at 125.1 g/H SEPTTR 3DC (disease control rating): A: > 80; B: ≤ 80; C: Not Tested; D: No Activity Observed in the Reported Assay; conditions: for SEPTTR 1DP disease control rating, LV activity at 125.1 g/H / SEPTTR 1DP disease control rating, HV activity at 100 ppm: 1 day protectant; for SEPTTR 3DC disease control rating, LV activity at 125.1 g/H / SEPTTR 3DC disease control rating, HV activity at 100 ppm: 3 day curative; for SEPTTR 1DP disease control rating, HV activity at 100 ppm / SEPTTR 3DC disease control rating, HV activity at 100 ppm: high volume application; for SEPTTR 1DP disease control rating, HV activity / SEPTTR 3DC disease control rating, HV activity: HV application at 100 ppm
[2] = tested on: Puccinia triticina; test: Wheat brown rust (PUCCRT) disease control on wheat seedlings; assay type: in vivo; parameters: key to PUCCRT 3DC, HV activity at 100 ppm (% control rating) / PUCCRT disease control, 3DC / PUCCRT 1DP disease control rating, HV activity / PUCCRT 3DC disease control rating, HV activity / PUCCRT 3DC, LV activity at 125.1 g/H (% Control rating) / PUCCRT 1DP, LV activity at 125.1 g/H (% Control rating) / PUCCRT 3DC disease control rating, LV activity at 125.1 g/H / PUCCRT 1DP disease control rating, LV activity at 125.1 g/H / PUCCRT 3DC disease control rating, HV activity at 100 ppm / PUCCRT 1DP disease control rating, HV activity at 100 ppm / HV activity at 100 ppm PUCCRT 3DC (disease control rating) / LV activity at 125.1 g/H PUCCRT 1DP (disease control rating) / LV activity at 125.1 g/H PUCCRT 3DC (disease control rating): A: > 80; B: ≤ 80; C: Not Tested; D: No Activity Observed in the Reported Assay; conditions: for PUCCRT 1DP disease control rating, LV activity at 125.1 g/H / PUCCRT 1DP disease control rating, HV activity at 100 ppm: 1 day protectant; for PUCCRT 3DC disease control rating, LV activity at 125.1 g/H / PUCCRT 3DC disease control rating, HV activity at 100 ppm: 3 day curative; for PUCCRT 1DP disease control rating, HV activity at 100 ppm / PUCCRT 3DC disease control rating, HV activity at 100 ppm: high volume application; for PUCCRT 1DP disease control rating, HV activity / PUCCRT 3DC disease control rating, HV activity: HV application at 100 ppm
[3] = low volume application, 125.1 g/H
[4] = low volume application, 125.1 g/H, 1 Day Protectant
[5] = low volume application, 125.1 g/H, 3 Day Curative
[6] = 1 Day Protectant, wheat leaf blotch
[7] = 3 Day Curative, wheat leaf blotch
[8] = 1 Day Protectant, wheat brown rust
[9] = 3 Day Curative, wheat brown rust

COc1ccnc(C(=O)N[C@@H](C)C(=O)O[C@@H](C)[C@H](OCC(C)C)C2CCCC2)c1OC(C)=O [Cmpd 922]
SEPTTR 1DP disease control rating, LV activity at 125.1 g/H [1, 3]: A (> 80)
SEPTTR 3DC disease control rating, LV activity at 125.1 g/H [1, 3]: B (≤ 80)
PUCCRT 1DP disease control rating, LV activity at 125.1 g/H [2, 3]: A (> 80)
PUCCRT 3DC disease control rating, LV activity at 125.1 g/H [2, 3]: A (> 80)

CCC(CC)[C@@H](Oc1ccc(-c2ccccc2)cc1)[C@H](C)OC(=O)[C@H](C)NC(=O)c1nccc(OC)c1OC(C)=O [Cmpd 607]
SEPTTR 1DP, LV activity at 125.1 g/H (% Control rating) [1, 4]: A (> 80)
SEPTTR 3DC, LV activity at 125.1 g/H (% Control rating) [1, 5]: B (≤ 80)
PUCCRT 1DP, LV activity at 125.1 g/H (% Control rating) [2, 4]: A (> 80)
PUCCRT 3DC, LV activity at 125.1 g/H (% Control rating) [2, 5]: B (≤ 80)

COc1ccnc(C(=O)N[C@@H](C)C(=O)O[C@@H](C)[C@@H](OC(=O)c2ccccc2)C(C)C)c1OCOC(C)=O [Cmpd 851]
SEPTTR 1DP disease control rating, LV activity at 125.1 g/H [1, 3]: D
SEPTTR 3DC disease control rating, LV activity at 125.1 g/H [1, 3]: D
PUCCRT 1DP disease control rating, LV activity at 125.1 g/H [2, 3]: B (≤ 80)
PUCCRT 3DC disease control rating, LV activity at 125.1 g/H [2, 3]: B (≤ 80)

COc1ccnc(C(=O)NC(C)C(=O)OC(C)COc2ccccc2)c1OC(=O)C1CC1 (stereo not drawn) [Cmpd 541]
SEPTTR 1DP, LV activity at 125.1 g/H (% Control rating) [1, 4]: B (≤ 80)
SEPTTR 3DC, LV activity at 125.1 g/H (% Control rating) [1, 5]: B (≤ 80)
PUCCRT 1DP, LV activity at 125.1 g/H (% Control rating) [2, 4]: D
PUCCRT 3DC, LV activity at 125.1 g/H (% Control rating) [2, 5]: D

COc1ccnc(C(=O)N[C@H](C(=O)O[C@@H](C)[C@H](Oc2ccccc2)C(C)C)C(C)C)c1O [Cmpd 811]
SEPTTR 1DP disease control rating, HV activity at 100 ppm [1]: B (≤ 80)
SEPTTR 3DC disease control rating, HV activity at 100 ppm [1]: B (≤ 80)
PUCCRT 1DP disease control rating, HV activity at 100 ppm [2]: A (> 80)
PUCCRT 3DC disease control rating, HV activity at 100 ppm [2]: A (> 80)

CCC(CC)[C@@H](OCC1CC1)[C@H](C)OC(=O)[C@H](C)NC(=O)c1nccc(OC)c1O [Cmpd 353]
SEPTTR 1DP disease control rating, HV activity [1, 6]: B (≤ 80)
SEPTTR 3DC disease control rating, HV activity [1, 7]: B (≤ 80)
PUCCRT 1DP disease control rating, HV activity [2, 8]: A (> 80)
PUCCRT 3DC disease control rating, HV activity [2, 9]: A (> 80)

CCC(CC)[C@@H](Oc1cccc(-c2ccccc2)c1)[C@H](C)OC(=O)[C@@H](NC(=O)c1nccc(OC)c1OCOC(C)=O)C(C)C [Cmpd 654]
SEPTTR 1DP, LV activity at 125.1 g/H (% Control rating) [1, 4]: B (≤ 80)
SEPTTR 3DC, LV activity at 125.1 g/H (% Control rating) [1, 5]: D
PUCCRT 1DP, LV activity at 125.1 g/H (% Control rating) [2, 4]: A (> 80)
PUCCRT 3DC, LV activity at 125.1 g/H (% Control rating) [2, 5]: D

COc1ccnc(C(=O)NC(C)C(=O)OC(C)COCC2CC2)c1OCOC(C)=O (stereo not drawn) [Cmpd 527]
SEPTTR 1DP, LV activity at 125.1 g/H (% Control rating) [1, 4]: D
SEPTTR 3DC, LV activity at 125.1 g/H (% Control rating) [1, 5]: A (> 80)
PUCCRT 1DP, LV activity at 125.1 g/H (% Control rating) [2, 4]: B (≤ 80)
PUCCRT 3DC, LV activity at 125.1 g/H (% Control rating) [2, 5]: B (≤ 80)

C=CC[C@@H](Oc1ccc(C(F)(F)F)cc1)[C@H](C)OC(=O)[C@H](C)NC(=O)c1nccc(OC)c1OC(C)=O [Cmpd 1084]
LV activity at 125.1 g/H SEPTTR 1DP (disease control rating) ([1]; low volume application, 125.1 g/H, 1 Day Protectant, wheat leaf blotch): B (≤ 80)
LV activity at 125.1 g/H SEPTTR 3DC (disease control rating) ([1]; low volume application, 125.1 g/H, 3 Day Curative, wheat leaf blotch): B (≤ 80)
LV activity at 125.1 g/H PUCCRT 1DP (disease control rating) ([2]; low volume application, 125.1 g/H, 1 Day Protectant, wheat brown rust): B (≤ 80)
LV activity at 125.1 g/H PUCCRT 3DC (disease control rating) ([2]; low volume application, 125.1 g/H, 3 Day Curative, wheat brown rust): D

COc1ccnc(C(=O)NC(C)C(=O)OC(C)C(OCC(C)C)c2ccccc2)c1O (stereo not drawn) [Cmpd 819]
SEPTTR 1DP disease control rating, HV activity at 100 ppm [1]: B (≤ 80)
SEPTTR 3DC disease control rating, HV activity at 100 ppm [1]: D
PUCCRT 1DP disease control rating, HV activity at 100 ppm [2]: D
PUCCRT 3DC disease control rating, HV activity at 100 ppm [2]: B (≤ 80)

CCC(CC)C(Oc1cc(F)ccc1F)C(C)OC(=O)C(CC(C)C)NC(=O)c1nccc(OC)c1O (stereo not drawn) [Cmpd 428]
SEPTTR 1DP disease control rating, HV activity [1, 6]: D
SEPTTR 3DC disease control rating, HV activity [1, 7]: D
PUCCRT 1DP disease control rating, HV activity [2, 8]: B (≤ 80)
PUCCRT 3DC disease control rating, HV activity [2, 9]: D

CCCO[C@@H](C1CC1)[C@@H](Oc1ccccc1)[C@H](C)OC(=O)[C@H](C)NC(=O)c1nccc(OC)c1OCOC(C)=O [Cmpd 505]
SEPTTR 1DP, LV activity at 125.1 g/H (% Control rating) [1, 4]: B (≤ 80)
SEPTTR 3DC, LV activity at 125.1 g/H (% Control rating) [1, 5]: B (≤ 80)
PUCCRT 1DP, LV activity at 125.1 g/H (% Control rating) [2, 4]: A (> 80)
PUCCRT 3DC, LV activity at 125.1 g/H (% Control rating) [2, 5]: A (> 80)
